What was measured:
Assay in all cases: radiometric filter-binding kinase assay, Kinase HotSpot
Details in all cases: compound 0.5 µM; ATP 10 µM
AURKC (human) = AURKC (human) (UniProt Q9UQB9)
MYLK (human) = MYLK (human) (UniProt Q15746)
CDK6 CCND3 (human) = CDK6 CCND3 (human) (UniProt P30281+Q00534)
PDGFRB (human) = PDGFRB (human) (UniProt P09619)
MKNK2 (human) = MKNK2 (human) (UniProt Q9HBH9)
CLK2 (human) = CLK2 (human) (UniProt P49760)
CHEK2 (human) = CHEK2 (human) (UniProt O96017)
PAK7 (human) = PAK7 (human) (UniProt Q9P286)
EPHA2 (human) = EPHA2 (human) (UniProt P29317)
Sequence of EPHA2 (human) (P29317 whole entry, looked up): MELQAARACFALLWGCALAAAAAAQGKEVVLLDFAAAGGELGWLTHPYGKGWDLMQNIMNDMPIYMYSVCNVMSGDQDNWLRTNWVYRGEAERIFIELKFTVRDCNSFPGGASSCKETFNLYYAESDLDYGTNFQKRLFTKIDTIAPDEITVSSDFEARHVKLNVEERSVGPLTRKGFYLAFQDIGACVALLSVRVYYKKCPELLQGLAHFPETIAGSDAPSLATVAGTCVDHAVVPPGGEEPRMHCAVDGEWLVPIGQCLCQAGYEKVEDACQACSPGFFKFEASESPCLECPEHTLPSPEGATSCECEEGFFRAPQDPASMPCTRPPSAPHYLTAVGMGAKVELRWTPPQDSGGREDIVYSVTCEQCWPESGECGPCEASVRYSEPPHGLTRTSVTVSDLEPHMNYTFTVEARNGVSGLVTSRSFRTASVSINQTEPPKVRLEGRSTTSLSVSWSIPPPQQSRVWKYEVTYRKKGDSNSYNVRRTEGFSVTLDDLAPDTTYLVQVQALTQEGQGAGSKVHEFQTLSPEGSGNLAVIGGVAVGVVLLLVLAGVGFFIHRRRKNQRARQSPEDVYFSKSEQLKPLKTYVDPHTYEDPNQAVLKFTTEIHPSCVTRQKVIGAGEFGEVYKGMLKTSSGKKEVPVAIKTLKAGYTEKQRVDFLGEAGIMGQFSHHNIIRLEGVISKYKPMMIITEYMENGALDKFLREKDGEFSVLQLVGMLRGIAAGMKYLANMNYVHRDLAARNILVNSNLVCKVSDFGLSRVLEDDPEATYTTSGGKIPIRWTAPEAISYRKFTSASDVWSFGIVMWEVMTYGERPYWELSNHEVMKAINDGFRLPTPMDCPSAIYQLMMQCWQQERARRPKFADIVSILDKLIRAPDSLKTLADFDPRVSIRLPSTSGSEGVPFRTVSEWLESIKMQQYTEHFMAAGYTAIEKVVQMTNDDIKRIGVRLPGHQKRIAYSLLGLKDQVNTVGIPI

PIM1 (human) = PIM1 (human) (UniProt P11309)
STK25 (human) = STK25 (human) (UniProt O00506)
Sequence of STK25 (human) (O00506 whole entry, looked up): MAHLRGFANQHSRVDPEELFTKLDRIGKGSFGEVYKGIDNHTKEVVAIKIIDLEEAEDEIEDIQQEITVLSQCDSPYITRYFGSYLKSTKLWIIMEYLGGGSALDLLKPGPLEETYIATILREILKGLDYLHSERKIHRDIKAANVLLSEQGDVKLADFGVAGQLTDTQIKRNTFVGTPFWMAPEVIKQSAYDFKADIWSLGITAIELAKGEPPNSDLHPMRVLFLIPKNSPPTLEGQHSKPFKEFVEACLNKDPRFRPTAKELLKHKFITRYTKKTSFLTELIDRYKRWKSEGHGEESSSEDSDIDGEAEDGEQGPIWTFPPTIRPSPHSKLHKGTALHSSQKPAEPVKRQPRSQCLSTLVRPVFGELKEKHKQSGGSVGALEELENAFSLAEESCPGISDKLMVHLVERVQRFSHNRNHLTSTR

MELK (human) = MELK (human) (UniProt Q14680)
Sequence of MELK (human) (Q14680 whole entry, looked up): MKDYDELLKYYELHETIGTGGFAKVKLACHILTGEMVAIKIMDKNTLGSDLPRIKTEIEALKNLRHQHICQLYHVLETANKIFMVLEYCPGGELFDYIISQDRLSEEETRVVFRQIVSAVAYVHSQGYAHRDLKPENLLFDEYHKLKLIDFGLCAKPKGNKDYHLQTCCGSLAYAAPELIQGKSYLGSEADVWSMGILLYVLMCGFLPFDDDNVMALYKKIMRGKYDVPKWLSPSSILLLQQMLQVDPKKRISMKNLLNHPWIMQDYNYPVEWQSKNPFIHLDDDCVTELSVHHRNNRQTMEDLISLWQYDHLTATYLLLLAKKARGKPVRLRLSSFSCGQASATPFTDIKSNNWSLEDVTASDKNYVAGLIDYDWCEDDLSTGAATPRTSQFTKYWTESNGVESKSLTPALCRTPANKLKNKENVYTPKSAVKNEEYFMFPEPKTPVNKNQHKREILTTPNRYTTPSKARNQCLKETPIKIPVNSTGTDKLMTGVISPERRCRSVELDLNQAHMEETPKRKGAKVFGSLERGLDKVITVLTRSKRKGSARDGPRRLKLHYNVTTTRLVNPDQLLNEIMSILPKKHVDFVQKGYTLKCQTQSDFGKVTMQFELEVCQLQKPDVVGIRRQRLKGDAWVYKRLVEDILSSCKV

[1] = tested on: ARAF (human), P10398 [Y301D/Y302D]
STK10 (human) = STK10 (human) (UniProt O94804)
TEK (human) = TEK (human) (UniProt Q02763)
Sequence of TEK (human) (Q02763 whole entry, looked up): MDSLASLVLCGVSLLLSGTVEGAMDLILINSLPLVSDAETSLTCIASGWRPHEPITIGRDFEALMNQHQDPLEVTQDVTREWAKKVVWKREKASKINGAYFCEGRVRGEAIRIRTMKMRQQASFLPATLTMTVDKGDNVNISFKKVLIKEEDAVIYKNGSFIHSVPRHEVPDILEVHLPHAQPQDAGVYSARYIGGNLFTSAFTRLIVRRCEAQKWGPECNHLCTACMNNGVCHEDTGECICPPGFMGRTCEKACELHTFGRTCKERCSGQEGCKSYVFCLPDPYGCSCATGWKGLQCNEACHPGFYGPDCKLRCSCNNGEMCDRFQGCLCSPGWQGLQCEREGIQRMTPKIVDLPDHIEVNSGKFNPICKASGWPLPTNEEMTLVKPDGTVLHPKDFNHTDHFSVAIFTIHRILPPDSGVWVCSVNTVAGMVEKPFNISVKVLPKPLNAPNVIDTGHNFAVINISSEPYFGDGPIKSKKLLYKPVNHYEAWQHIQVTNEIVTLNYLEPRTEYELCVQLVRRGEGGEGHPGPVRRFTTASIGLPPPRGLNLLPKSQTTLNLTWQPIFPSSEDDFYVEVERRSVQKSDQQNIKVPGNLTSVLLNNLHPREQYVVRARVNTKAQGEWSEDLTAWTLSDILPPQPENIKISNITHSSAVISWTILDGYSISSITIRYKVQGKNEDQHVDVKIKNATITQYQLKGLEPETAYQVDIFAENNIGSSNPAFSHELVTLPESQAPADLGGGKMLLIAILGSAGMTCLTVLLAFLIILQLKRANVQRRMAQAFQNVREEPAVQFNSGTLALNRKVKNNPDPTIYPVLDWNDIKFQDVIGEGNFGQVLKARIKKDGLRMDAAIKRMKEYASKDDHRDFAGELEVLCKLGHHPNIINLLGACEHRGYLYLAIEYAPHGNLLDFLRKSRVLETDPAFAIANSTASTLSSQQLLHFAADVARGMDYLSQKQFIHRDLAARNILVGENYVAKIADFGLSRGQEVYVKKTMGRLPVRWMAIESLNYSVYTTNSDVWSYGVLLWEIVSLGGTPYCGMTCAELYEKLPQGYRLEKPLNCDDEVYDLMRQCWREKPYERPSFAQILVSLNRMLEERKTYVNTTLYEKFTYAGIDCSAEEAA

DYRK3 (human) = DYRK3 (human) (UniProt O43781)
AURKA (human) = AURKA (human) (UniProt O14965)
CDK6 CCND1 (human) = CDK6 CCND1 (human) (UniProt Q00534+P24385)
DYRK1A (human) = DYRK1A (human) (UniProt Q13627)
NTRK1 (human) = NTRK1 (human) (UniProt P04629)
WNK3 (human) = WNK3 (human) (UniProt Q9BYP7)
VRK1 (human) = VRK1 (human) (UniProt Q99986)
Sequence of VRK1 (human) (Q99986 whole entry, looked up): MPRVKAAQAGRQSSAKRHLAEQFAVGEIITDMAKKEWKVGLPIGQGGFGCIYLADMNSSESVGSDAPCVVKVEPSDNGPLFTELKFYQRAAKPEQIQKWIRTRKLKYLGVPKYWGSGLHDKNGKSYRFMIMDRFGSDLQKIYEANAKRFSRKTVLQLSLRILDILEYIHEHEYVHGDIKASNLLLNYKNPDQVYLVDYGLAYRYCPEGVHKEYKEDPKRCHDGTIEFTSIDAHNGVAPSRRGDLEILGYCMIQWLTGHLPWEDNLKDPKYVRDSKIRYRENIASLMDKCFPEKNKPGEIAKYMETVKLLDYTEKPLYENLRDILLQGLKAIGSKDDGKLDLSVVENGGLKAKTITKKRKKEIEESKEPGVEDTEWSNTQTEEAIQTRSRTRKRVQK

KDR (human) = KDR (human) (UniProt P35968)
CSNK2A2 (human) = CSNK2A2 (human) (UniProt P19784)
Sequence of CSNK2A2 (human) (P19784 whole entry, looked up): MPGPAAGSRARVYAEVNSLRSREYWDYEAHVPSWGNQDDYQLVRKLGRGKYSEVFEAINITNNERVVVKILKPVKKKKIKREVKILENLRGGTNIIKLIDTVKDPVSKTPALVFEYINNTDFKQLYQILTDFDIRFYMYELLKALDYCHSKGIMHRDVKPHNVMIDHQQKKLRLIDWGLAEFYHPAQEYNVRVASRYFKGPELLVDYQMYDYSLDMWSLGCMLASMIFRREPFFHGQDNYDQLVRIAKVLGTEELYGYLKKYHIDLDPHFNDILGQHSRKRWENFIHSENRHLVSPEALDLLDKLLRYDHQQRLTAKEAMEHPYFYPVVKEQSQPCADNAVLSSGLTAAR

GRK7 (human) = GRK7 (human) (UniProt Q8WTQ7)
OXSR1 (human) = OXSR1 (human) (UniProt O95747)
HIPK3 (human) = HIPK3 (human) (UniProt Q9H422)
CAMK1G (human) = CAMK1G (human) (UniProt Q96NX5)
EGFR (human) = EGFR (human) (UniProt P00533)
AKT3 (human) = AKT3 (human) (UniProt Q9Y243)
ABL1 (human) = ABL1 (human) (UniProt P00519)
SGK3 (human) = SGK3 (human) (UniProt Q96BR1)
PIM2 (human) = PIM2 (human) (UniProt Q9P1W9)
BRAF (human) = BRAF (human) (UniProt P15056)
PAK6 (human) = PAK6 (human) (UniProt Q9NQU5)

Sequence of CDK6 CCND3 (human) (P30281 whole entry, looked up): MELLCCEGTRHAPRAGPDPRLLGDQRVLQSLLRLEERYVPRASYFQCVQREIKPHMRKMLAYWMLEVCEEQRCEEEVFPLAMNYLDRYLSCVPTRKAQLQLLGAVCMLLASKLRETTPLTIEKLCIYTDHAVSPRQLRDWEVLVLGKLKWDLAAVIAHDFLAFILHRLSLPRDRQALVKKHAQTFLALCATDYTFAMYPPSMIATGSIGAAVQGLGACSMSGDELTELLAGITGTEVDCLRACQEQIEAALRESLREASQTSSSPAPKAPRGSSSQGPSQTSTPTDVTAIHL
Sequence of CDK6 CCND3 (human) (Q00534 whole entry, looked up): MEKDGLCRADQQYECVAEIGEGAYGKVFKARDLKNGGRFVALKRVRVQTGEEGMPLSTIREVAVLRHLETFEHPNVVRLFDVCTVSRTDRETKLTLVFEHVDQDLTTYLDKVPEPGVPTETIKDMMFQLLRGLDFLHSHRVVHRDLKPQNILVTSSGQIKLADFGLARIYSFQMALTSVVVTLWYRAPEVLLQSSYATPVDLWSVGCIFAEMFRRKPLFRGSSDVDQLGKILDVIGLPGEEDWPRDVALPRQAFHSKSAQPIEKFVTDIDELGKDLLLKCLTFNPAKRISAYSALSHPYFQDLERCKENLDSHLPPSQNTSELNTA
Sequence of AURKC (human) (Q9UQB9 whole entry, looked up): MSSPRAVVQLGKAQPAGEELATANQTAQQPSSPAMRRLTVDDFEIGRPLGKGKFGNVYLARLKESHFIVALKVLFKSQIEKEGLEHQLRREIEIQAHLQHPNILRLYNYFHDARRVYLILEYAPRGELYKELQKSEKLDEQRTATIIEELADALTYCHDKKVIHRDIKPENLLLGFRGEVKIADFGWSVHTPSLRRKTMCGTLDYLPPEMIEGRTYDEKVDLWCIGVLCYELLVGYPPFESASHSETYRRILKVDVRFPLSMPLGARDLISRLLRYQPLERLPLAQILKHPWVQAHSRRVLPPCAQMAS

Row | Compound | residual activity (AURKC (human)) [%] | residual activity (MYLK (human)) [%] | residual activity (CDK6 CCND3 (human)) [%] | residual activity (MKNK2 (human)) [%] | residual activity (CLK2 (human)) [%] | residual activity (CHEK2 (human)) [%] | residual activity (PAK7 (human)) [%] | residual activity (EPHA2 (human)) [%] | residual activity (PIM1 (human)) [%] | residual activity (STK25 (human)) [%] | residual activity (MELK (human)) [%] | residual activity [1] [%] | residual activity (STK10 (human)) [%] | residual activity (TEK (human)) [%] | residual activity (DYRK3 (human)) [%] | residual activity (AURKA (human)) [%] | residual activity (CDK6 CCND1 (human)) [%] | residual activity (DYRK1A (human)) [%] | residual activity (NTRK1 (human)) [%] | residual activity (WNK3 (human)) [%] | further results
1 | CC(C)n1cnc2c(Nc3cccc(Cl)c3)nc(NCCO)nc21 | 92.1 | 87.8 | 89.7 | 94.8 | 25 | 78.5 | 80.4 | 93.3 | 93.9 | 92.9 | 59.7 | 107 | 86.9 | 97.4 | 97.2 | 108 | 95.5 | 88.6 | 98.2 | 77.7 | residual activity (PDGFRB (human)): 94.7%; residual activity (VRK1 (human)): 96.3%; residual activity (KDR (human)): 103%; residual activity (CSNK2A2 (human)): 91.8%; residual activity (GRK7 (human)): 88.7%; residual activity (OXSR1 (human)): 97.7%; residual activity (HIPK3 (human)): 99.9%; residual activity (CAMK1G (human)): 98.7%; residual activity (EGFR (human)): 91.5%; residual activity (AKT3 (human)): 99.9%; residual activity (ABL1 (human)): 73.3%; residual activity (SGK3 (human)): 97.1%; residual activity (PIM2 (human)): 97%; residual activity (BRAF (human)): 97%
2 | O=C1Nc2cc(Br)ccc2/C1=C1/Nc2ccccc2/C1=N\O | 51.8 | 45 | 25.4 | 75.3 | 91.9 | 48.3 | 104 | 70.9 | 96.1 | 96.3 | 43.5 | 99.8 | 52.8 | 96.7 | 104 | 17.1 | 35.9 | 101 | 34.5 | 93.8 | residual activity (PDGFRB (human)): 35.2%; residual activity (PAK6 (human)): 86.3%; residual activity (VRK1 (human)): 98%; residual activity (KDR (human)): 64.2%; residual activity (CSNK2A2 (human)): 63.1%; residual activity (GRK7 (human)): 96.7%; residual activity (OXSR1 (human)): 100%; residual activity (HIPK3 (human)): 64.8%; residual activity (CAMK1G (human)): 96%; residual activity (EGFR (human)): 89%; residual activity (AKT3 (human)): 89.4%; residual activity (SGK3 (human)): 97.2%; residual activity (PIM2 (human)): 95.5%; residual activity (BRAF (human)): 98.2%
3 | CC(C)(C)c1nc2c3ccc(F)cc3c3c(=O)[nH]ccc3c2[nH]1 | 29.3 | 9.03 | 87.8 | 62 | 93.9 | 0.717 | 90.5 | 98.5 | 38.6 | 86.9 | 5.23 | 122 | 72.6 | 101 | 105 | 22.3 | 87.7 | 102 | 48.7 | 90 | residual activity (PAK6 (human)): 90.9%; residual activity (VRK1 (human)): 82.2%; residual activity (KDR (human)): 103%; residual activity (CSNK2A2 (human)): 91.5%; residual activity (GRK7 (human)): 60.5%; residual activity (OXSR1 (human)): 100%; residual activity (HIPK3 (human)): 78.6%; residual activity (CAMK1G (human)): 95.3%; residual activity (EGFR (human)): 94.8%; residual activity (AKT3 (human)): 76.4%; residual activity (ABL1 (human)): 98.4%; residual activity (SGK3 (human)): 96.6%; residual activity (PIM2 (human)): 90.8%; residual activity (BRAF (human)): 117%
